Entries after “also recorded” stand apart in the source; their conditions may differ. Read-outs that look alike come from different tables or passages of the source.
Assays:
SARS-CoV-2 Nsp13 [1] = molecular target: T1, SARS-CoV-2 Nsp13 (Severe acute respiratory syndrome coronavirus 2, UniProt P0DTD1); test: biochemical; conditions: for inhibition at 50 µM: read-out: inhibition of helicase activity
T1 construct: its nonstructural protein 13 (Nsp13) remains a clinically untapped target; His6-Zb-TEV (N, cleaved yes); host or cells: E. coli BL21 (DE3)

SARS-CoV-2 Nsp13 [2] = molecular target: T1, SARS-CoV-2 Nsp13; format: binding; conditions: duplex-FL 100 nM, Nsp13 1 μM
[3] = test system: Vero E6, Vero ACE2-TMPRSS2 and A549 ACE2 cells; conditions: t = 22 hr
[4] = molecular target: T2, Hepatitis C Virus (HCV) RNA helicase NS3 (Hepatitis C virus genotype 1b, UniProt Q9WMX2); format: biochemical
T2 construct: A truncated form of the Hepatitis C NS3 helicase protein; His-SUMO (N, cleaved yes); made in house; host or cells: E. coli BL21 (DE3) per the methods text

SARS-CoV-2 = test system: SARS-CoV-2; design: method as in PMID 35456026; conditions: micromolar concentrations, CFTR-expressing cells; cited from earlier work
SARS-CoV-2 Nsp13 [5] = molecular target: T1, SARS-CoV-2 Nsp13; format: biochemical
[6] = test system: duplex-FL (labeled duplex DNA); format: binding; conditions: duplex-FL 100 nM, 10% DMSO, no protein
Tte UvrD helicase = format: biochemical; conditions: 3.02 nM UvrD, 1 mM ATP, 65 °C, increasing concentrations
SARS-CoV-2 Nsp13 [7] = molecular target: T1, SARS-CoV-2 Nsp13; format: biochemical; remark: listed apart in the source
[8] = test system: Chinese hamster ovary (CHO) cells expressing CFTR or colon carcinoma cells; conditions: cited from earlier work
SARS-CoV-2 Nsp13 [9] = molecular target: T1, SARS-CoV-2 Nsp13; test: biochemical; conditions: for first-round screen, inhibition of Nsp13 ATPase activity (considered active): no detergent, t = 5 min, compound equimolar to ATP
Nsp13 = conditions: cited from earlier work

T2 sequence (Q9WMX2 1193-1657): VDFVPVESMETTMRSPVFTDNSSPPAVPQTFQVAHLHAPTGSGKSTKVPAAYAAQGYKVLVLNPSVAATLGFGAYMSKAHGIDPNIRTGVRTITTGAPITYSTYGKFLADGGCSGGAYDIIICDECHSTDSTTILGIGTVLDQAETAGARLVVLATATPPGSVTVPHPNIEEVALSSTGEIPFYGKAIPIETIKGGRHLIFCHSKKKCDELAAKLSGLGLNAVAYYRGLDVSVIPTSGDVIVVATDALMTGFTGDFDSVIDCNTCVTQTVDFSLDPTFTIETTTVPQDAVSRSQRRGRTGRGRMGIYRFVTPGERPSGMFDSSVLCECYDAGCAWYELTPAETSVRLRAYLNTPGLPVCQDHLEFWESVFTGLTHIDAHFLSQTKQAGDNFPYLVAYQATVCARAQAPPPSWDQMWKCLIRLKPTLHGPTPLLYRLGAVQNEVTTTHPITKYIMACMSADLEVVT

## Cc1ccc(-c2cc(C(=O)NCc3ccc(Oc4ccccc4)cc3)no2)cc1C [Analog 2]
SARS-CoV-2 Nsp13 [1]; 50 μM analog, 3.12 nM Nsp13, 0.01% Tween-20
  inhibition of helicase activity: no inhibition
SARS-CoV-2 Nsp13 [2]
  displacement of duplex-FL probe: no displacement of probe
[3]; up to 20 µM
  toxicity against infection cell lines: did not show toxicity

## C=CCn1c(CSc2ccccc2[N+](=O)[O-])n[nH]c1=S [SSYA10-001]
SARS-CoV-2 Nsp13 [1]
  inhibition of helicase activity: inhibited

## O=C(NCc1ccc(Oc2ccccc2)cc1)c1nc(-c2cc(Br)c(O)c(Br)c2)no1 [IOWH-032]
[4]; 250 nM NS3, 250 μM ATP
  concentration above which NS3 ATPase activity decreases: exceed 100 µM
[4]; mid-micromolar concentrations of compound
  sensitivity of NS3 ATPase activity: nearly insensitive
SARS-CoV-2
  reduction of SARS-CoV-2 viral loads compared to untreated cells: > 2 log10
SARS-CoV-2 Nsp13 [5]
  mode of helicase inhibition with respect to nucleic acid substrate: mixed inhibition
[6]
  interaction with duplex-FL probe alone: does not interact with probe alone; also recorded: no direct interaction
Tte UvrD helicase
  effect on UvrD ATPase activity (ATP consumption): is not affected; also recorded: still demonstrated ATPase activity
SARS-CoV-2 Nsp13 [7]
  mode of ATPase inhibition with respect to ATP: uncompetitive
[8]
  toxicity: not toxic
[3]; 4 μM, across all mammalian cell lines tested
  reduction in cell viability: ~50%

## CNC(=O)c1cc(COc2nnc(Nc3ccc(Cl)cc3)c3ccoc23)ccn1 [telatinib]
SARS-CoV-2 Nsp13 [1]
  IC50: 20.4 ± 1.5 µM
SARS-CoV-2 Nsp13 [9]; 25 nM Nsp13, 0.01% Tween-20, read-out: ATPase inhibition IC50
  IC50: ~114 µM
SARS-CoV-2 Nsp13 [9]
  first-round screen, inhibition of Nsp13 ATPase activity (considered active): active

## C[C@H](NC(=O)Cc1cc(F)cc(F)c1)C(=O)N[C@@H]1C(=O)N(C)c2ccccc2-c2ccccc21 [dibenzazepine]
SARS-CoV-2 Nsp13 [9]; Tween-20, up to high micromolar concentrations
  ATPase inhibition on titration in the presence of detergent: no inhibition
SARS-CoV-2 Nsp13 [9]
  first-round screen, inhibition of Nsp13 ATPase activity (considered active): active

## O=C(NCc1ccc(Cn2cc(Cl)cn2)cc1)c1nc(-c2ccc(C(F)(F)F)cc2)no1 [Analog 1]
SARS-CoV-2 Nsp13 [1]
  IC50: 131 ± 53 µM
  inhibition at 50 µM: > 25%
SARS-CoV-2 Nsp13 [1]; 3.12 nM Nsp13, 0.01% Tween-20
  fold higher helicase IC50 than IOWH-032: > 10 fold

## Cc1ccc(COc2c(Br)cc(CNc3ccc(Oc4ccccc4)cc3)cc2Br)cc1 [Analog 5]
SARS-CoV-2 Nsp13 [1]
  inhibition at 50 µM: < 25%

## O=C1O[C@H]2[C@@H]3OC(=O)c4cc(O)c(O)c(O)c4-c4c(O)c(O)c5oc(=O)c6c(c(O)c(O)c7oc(=O)c4c5c76)-c4c(cc(O)c(O)c4O)C(=O)OC[C@H]3OC(O)[C@@H]2OC(=O)c2cc(O)c(O)c(O)c2-c2c1cc(O)c(O)c2O (mixture of isomers) [punicalagin]
Nsp13
  Kd: ~0.02 µM

## O=C(Cn1cccc1-c1nc(-c2ccc(F)c(Br)c2)no1)NCc1ccc(F)cc1 [Analog 6]
SARS-CoV-2 Nsp13 [1]
  inhibition at 50 µM: < 25%

— article PMC11267572, “A Repurposed Drug Interferes with Nucleic Acid to Inhibit the Dual Activities of Coronavirus Nsp13” (ACS Chemical Biology, 2024)
